Laboratory results from patent publication US11226337B2, “Chemoproteomic profiling of protein electrophilic and oxidative post-translational modifications” (Zenagem, LLC, priority 2017, dated 2022).

Key:
Assay in all cases: SILAC RP-ABPP
Format in all cases: cell-based
Conditions in all cases: SILAC H/L, HEK293T
[1] = molecular target: T1, PLD3 Phospholipase D3 (Q8IV08) (Homo sapiens, UniProt Q8IV08)
T1 construct: shared by both the endogenous and recombinant forms of these proteins; endogenous in cells; host or cells: HEK293T and MDA-MB-231
T1 sequence (Q8IV08 1-490): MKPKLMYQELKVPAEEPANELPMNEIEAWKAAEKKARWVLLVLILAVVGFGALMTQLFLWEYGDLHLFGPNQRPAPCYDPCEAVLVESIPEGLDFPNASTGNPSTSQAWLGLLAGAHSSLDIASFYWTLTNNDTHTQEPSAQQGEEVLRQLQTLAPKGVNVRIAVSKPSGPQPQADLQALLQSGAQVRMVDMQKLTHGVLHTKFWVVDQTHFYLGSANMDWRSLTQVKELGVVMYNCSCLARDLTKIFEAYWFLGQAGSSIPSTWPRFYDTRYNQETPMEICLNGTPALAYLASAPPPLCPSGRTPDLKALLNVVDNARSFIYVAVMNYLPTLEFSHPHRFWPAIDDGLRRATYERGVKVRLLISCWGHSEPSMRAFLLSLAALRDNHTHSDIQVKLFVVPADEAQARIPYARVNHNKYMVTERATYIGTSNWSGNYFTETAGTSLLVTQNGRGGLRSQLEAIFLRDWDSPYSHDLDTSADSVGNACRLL

[2] = molecular target: T2, ALDH2 Aldehyde dehydrogenase (P05091) (Homo sapiens, UniProt P05091)
T2 construct: shared by both the endogenous and recombinant forms of these proteins; endogenous in cells; host or cells: HEK293T and MDA-MB-231
T2 sequence (P05091 18-517): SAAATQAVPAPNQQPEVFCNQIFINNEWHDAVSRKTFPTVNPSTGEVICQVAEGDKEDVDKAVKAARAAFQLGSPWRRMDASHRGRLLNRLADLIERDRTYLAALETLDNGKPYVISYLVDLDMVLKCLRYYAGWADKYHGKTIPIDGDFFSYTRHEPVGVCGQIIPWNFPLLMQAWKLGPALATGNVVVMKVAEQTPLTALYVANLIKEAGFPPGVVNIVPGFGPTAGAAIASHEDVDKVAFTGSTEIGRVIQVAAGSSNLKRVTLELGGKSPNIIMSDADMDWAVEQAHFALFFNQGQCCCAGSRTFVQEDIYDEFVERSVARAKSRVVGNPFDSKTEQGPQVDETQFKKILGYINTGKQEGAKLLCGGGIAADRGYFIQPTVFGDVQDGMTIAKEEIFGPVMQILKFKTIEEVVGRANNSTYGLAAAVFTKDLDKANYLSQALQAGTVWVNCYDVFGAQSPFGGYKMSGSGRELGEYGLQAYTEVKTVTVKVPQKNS
In short: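 SILAC cells (HEK293T, MDA-MB-231) grown near confluence; heavy: probe 1, 3 mM, 0.5 h; light: equal 3 or probe + 10× 3. Proteomes mixed equimolar, CuAAC with 100 μM biotin-azide, 1 h RT; enrichment, LC-MS. Ratios via CIMAGE-type extraction, ≥3 peptides.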

[3] = molecular target: T3, ALDOA Fructosebisphosphate aldolase A (P04075) (Homo sapiens, UniProt P04075)
T3 construct: shared by both the endogenous and recombinant forms of these proteins; endogenous in cells; host or cells: HEK293T and MDA-MB-231
T3 sequence (P04075 1-364): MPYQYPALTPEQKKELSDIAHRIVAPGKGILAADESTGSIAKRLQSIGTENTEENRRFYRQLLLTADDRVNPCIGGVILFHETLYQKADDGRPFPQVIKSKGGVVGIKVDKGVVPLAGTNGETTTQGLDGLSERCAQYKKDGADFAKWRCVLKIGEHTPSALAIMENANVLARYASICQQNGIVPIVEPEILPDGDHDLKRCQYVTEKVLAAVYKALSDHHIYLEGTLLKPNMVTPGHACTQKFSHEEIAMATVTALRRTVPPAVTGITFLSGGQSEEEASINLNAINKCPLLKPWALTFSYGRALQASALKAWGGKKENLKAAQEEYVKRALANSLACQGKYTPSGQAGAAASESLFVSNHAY

Compound | enrichment ratioavg ([1]; probe 1 3 mM 0.5 h vs probe 3) | competition ratioavg ([1]; probe 1 vs probe 1+10x probe 3) | enrichment ratioavg ([2]; probe 1 3 mM 0.5 h vs probe 3) | competition ratioavg ([2]; probe 1 vs probe 1+10x probe 3) | enrichment ratioavg ([3]; probe 1 3 mM 0.5 h vs probe 3) | competition ratioavg ([3]; probe 1 vs probe 1+10x probe 3) | enrichment ratioavg ([1]; probe 2 1 mM 0.5 h vs probe 4) | competition ratioavg ([1]; probe 2 vs probe 2+10x probe 4) | enrichment ratioavg ([2]; probe 2 1 mM 0.5 h vs probe 4) | competition ratioavg ([2]; probe 2 vs probe 2+10x probe 4) | enrichment ratioavg ([3]; probe 2 1 mM 0.5 h vs probe 4) | competition ratioavg ([3]; probe 2 vs probe 2+10x probe 4)
C#CCNN.Cl [probe 1, prop-2-yn-1-ylhydrazine hydrochloride] | 12 | 2 | 8 | 2 | 16 | 3 |  |  |  |  |  | 
C#CCCNC(=O)c1ccc(NN)cc1.Cl [probe 2, N-(but-3-yn-1-yl)-4-hydrazinylbenzamide hydrochloride] |  |  |  |  |  |  | 5 | 2 | 11 | 6 | 12 | 5
